Data reported in patent US3931196A, “Phosphinolines and phosphindolines” (Monash University, priority 1972, dated 1976).

Tests used:
[1] = McKenzie Beechey Mouse Tail Stimulation Test (analgesic activity); assay type: in vivo; details: compound active at 16mg/kg
Experimental: The compounds described above were subjected to a Mouse Writhing Test and to the McKenzie Beechey Mouse Tail Stimulation Test (1962, Archives Internationales de Pharmacodynamae et de Therapie, 135) to determine their analgesic activities. The test compounds were prepared as 1.0% solutions in carboxymethylcellulose. The control in all tests was carboxymethylcellulose.

toxicity test (LD50) = details: in vivo, species and route not given

Structure (SMILES): CN(C)CCP1(=S)CCCc2ccccc21 (centres unmarked) [Compound 19, 1-(2-N,N-Dimethylamino)ethyl-1-thio-1,2,3,4-tetrahydrophosphinoline]
- activity relative to morphine in the Tail Stimulation Test [1]: comparable to morphine
- LD50 (toxicity test (LD50)): 170 mg/kg
